Data: article PMC4320118, “Micheliolide Derivative DMAMCL Inhibits Glioma Cell Growth In Vitro and In Vivo” (PLoS ONE, 2015)
Several values for one entry are separate records, joined by “and”; a condition that tells them apart may be missing. Equal values may be shown once. Read-outs that look alike come from different tables or passages of the source.

Experiments:
[1] = system: U-87MG cells; assay: Cell proliferation MTT assay, U-87MG; type: cell-based; conditions: Homo sapiens, 72 h
Experimental: C6 and U-87MG cell lines were obtained from the American Type Culture Collection (ATCC) and cultured in our laboratory. Rat C6 glioma cells were cultured in F12K nutrient medium (Gibco, Grand Island, […]) supplemented with 15% horse serum (Auckland, NZ), 2.5% fetal bovine serum (FBS), 100 U/mL penicillin, and […] streptomycin (Gibco, Paisley, Scotland, UK). Human U-87MG cells were cultured in minimum essential medium (MEM) supplemented with 10% FBS, 1% nonessential amino acids, 100 U/mL penicillin, and […] streptomycin. Cells were cultured under a humidified atmosphere containing 5% CO2 at 37°C, and medium was changed every 1 to 2 days.
Tumor cells were seeded in 96-well plates at a density of 3500 cells/well. After 24 h in culture, cells were exposed to different concentrations of DMAMCL or medium alone (control) for 72 h. Cell viability was determined by MTT assays. Briefly, MTT regent (0.5 mg/mL) was added to wells, and cells were incubated for 4 h at 37°C. After removing the supernatant, 200 μL of dimethyl sulfoxide (DMSO) (Fluka, Switzerland) was added to dissolve formazan crystals. The absorbance at 570 nm was measured by a microplate reader (Thermo Labsystems, Helsinki, Finland). Control absorbance was taken as 100%. The absorbance of DMAMCL-treated cells was taken as percentage survival. […]

[2] = system: Bcl-2 and Bax in U-87MG cells; assay: Western blotting of Bcl-2 and Bax, U-87MG cells; type: cell-based, human; conditions: 60 μM and 120μM, 24 hr
Experimental: The cellular proteins were extracted from 10^7 cultured cells after drug treatments using RIPA lysis buffer (Promega, USA). Western blotting analysis was performed to determine cellular responses targeting apoptosis-related proteins including Bcl-2 and Bax. Briefly, C6 and U-87MG cells were treated with different doses of DMAMCL for 24 hr at 37°C. Then cells were washed twice with cold phosphate buffered saline (PBS) and lysed in RIPA buffer containing 1mmol/l PMSF (Pheylmethylsulfonyl fluoride, Sigma, USA) on ice for 30 min. The total proteins of cells were obtained by centrifugation at 12000 rpm for 15 min. Next, the lysate proteins were resolved by SDS-PAGE and transferred to the Immobilon-P membranes (Millipore, Billerica, MA, USA). The membranes were blocked by 5% nonfat milk in Tris-buffered saline with 0.1% Tween 20 (TBST) and immunoblotted with the antibodies against β-actin, Bcl-2 and Bax (Cellsignaling Technology, USA) at 4°C overnight. Then membranes were incubated with HRP-conjugated secondary antibody for 1.5 hr at room temperature. The targeting antibodies were stained with enhanced chemiluminescent reagents (Millipore, Billerica, MA, USA) and visualized by ChemiScope 3600 Mini systerm (Clinx Science Instruments, China).

[3] = system: intracerebral C6 glioma
Experimental: Adult Wistar rats (120–180 g, age 4–8 weeks) were obtained from the Animal Center at the Academy of Military Medical Sciences and had animal certification of SCXK (army) 2012–001. Animals were housed in collective cages at a temperature of 23 ± 2°C and relative humidity of 40% to 70%. All rats had free access to food and water.
Intracerebral tumor implantations were performed according to the following procedures. C6 tumors were maintained as subcutaneous tumors in rats. Subcutaneous masses were excised, dissociated, and mixed with matrigel on ice (BD Biosciences) at a ratio of 1:1. After removing of the hair on the skull, a small midline incision in the scalp was gently made under anesthesia with 2% sodium pentobarbital at a dose of 40mg/kg. C6 cells in matrigel (0.1 mL of the cell/matrigel mixture containing 10^8 cells /mL) were carefully injected into the right frontal cortex by a special 16-gauge stainless steel needle with 5 mm needle tubing. Implantation coordinates were determined from Swanson’s Stereotaxic Atlas guidelines (1992): 1.0 mm anterior and 3.0 mm lateral to bregma, at a depth of 5.0 mm from the brain surface. […] The syringe was slowly retracted, the hole was sealed with bone wax, and the incision was sutured under aseptic conditions. […] Then 0.015 mg/kg buprenorphine (s.c.) was administered to relieve the pain. The rats were replaced in cages and allowed to recover from anesthesia.
Rats were divided into the following 5 treatment groups 24 h after surgery (n = 9 rats /group) according to rat weight: 1) vehicle (normal saline: NS); 2) vincristine (VCR) at 100μg/kg; 3) DMAMCL at 25 mg/kg; 4) DMAMCL at 50 mg/kg; and 5) DMAMCL at 100 mg/kg. All drugs were prepared in NS and administered once daily for 21 days. DMAMCL was administered orally, and VCR was injected into the caudal vein. Rats were weighed and monitored for signs of mortality daily. Twenty one days into the treatment, rats were euthanized via CO2 asphyxiation under deep anesthesia by sodium pentobarbital. Brains and tumors were separated from the cerebellum and medulla oblongata, and weighed, photographed, fixed in formalin, and embedded in paraffin for sectioning. The tumor: brain weight ratio was assessed to observe the degree of tumor cell growth in brain. Serial sections (5 μm in thickness) were stained by hematoxylin and eosin (HE).

[4] = system: intracerebral C6 glioma; assay: Survival time analysis in C6 intracerebral glioma rats; type: in vivo, Wistar rats; conditions: for Survival (# of rats) End: 63 days, n = 10; for Survival: at 63 days; for Mean survival / Median survival: observation 63 days
Experimental: C6 tumors were maintained as subcutaneous tumors in rats.
The survival time analyses were performed in C6 intracerebral glioma rats. […] Animals were monitored daily for signs of mortality and weight. Rats were sacrificed when a loss of mobility, lethargy, hemorrhaging around the eyes, or a hunched posture was observed as previously described. The observation time was terminated when all the vehicle rats died. Then the other rats were euthanized by CO2 asphyxiation.

[5] = DMAMCL 25 mg/kg orally once daily for 21 days
[6] = DMAMCL 50 mg/kg orally once daily for 21 days
[7] = DMAMCL 100 mg/kg orally once daily for 21 days
[8] = DMAMCL 25 mg/kg daily for 21 days
[9] = DMAMCL 50 mg/kg daily for 21 days
[10] = DMAMCL 100 mg/kg daily for 21 days

## CC1=C2CC[C@@](C)(O)[C@@H]2[C@H]2OC(=O)[C@@H](CN(C)C)[C@@H]2CC1 [DMAMCL, dimethylaminomicheliolide]
[1]; read-out: IC50
  IC50: 20.6 ± 1.61 µM
[1]; read-out: x0 (midpoint of logistic fit, Fig 3B) (converted)
  IC50: 20.6 ± 1.6 µM
[2]
  Bax expression (Western blot): up-regulated Bax expression
  Bcl-2 expression (Western blot): down-regulated Bcl-2 expression
[3]; [5]
  Body weight End: 223.8 ± 13.1 g
  Inhibition (percent decrease in tumor weight compared to the vehicle group): 59.9%
  Tumor weight: 0.29 ± 0.20 g
  Tumor/brain: 15.0 ± 9.5 %
[3]; DMAMCL 25 mg/kg, 21 days
  Rats surviving to the end of the study: 89%
[3]; [6]
  Body weight End: 227.5 ± 11.9 g
  Inhibition (percent decrease in tumor weight compared to the vehicle group): 78.7%
  Tumor weight: 0.15 ± 0.12 g
  Tumor/brain: 6.3 ± 3.9 %
[3]; DMAMCL 50 mg/kg, 21 days
  Rats surviving to the end of the study: 89%
[3]; [7]
  Body weight End: 224.0 ± 12.1 g
  Inhibition (percent decrease in tumor weight compared to the vehicle group): 87.5%
  Signs of toxicity in tumor-bearing rats: no signs of systemic or intracranial toxicity
  Tumor weight: 0.09 ± 0.09 g
  Tumor/brain: 4.2 ± 3.1 %
[3]; DMAMCL 100 mg/kg, 21 days
  Histopathology of brain tissue (HE): appeared similar to normal brain tissues
  Rats surviving to the end of the study: 100%
[4]; [8]
  Median survival of deceased animals: 28 days
  Time of death End: 42 days
  Time of death Start: 20 days
  Survival (# of rats) End: 7 # of rats
  Survival: 70% and 70 ^** %
  Mean survival: 53.1 ± 16.8 days
  Median survival: 63 days
[4]; [9]
  Median survival of deceased animals: 25 days
  Time of death End: 25 days
  Time of death Start: 25 days
  Survival (# of rats) End: 9 # of rats
  Survival: 90% and 90 ^*** %
  Mean survival: 59.2 ± 12 days
  Median survival: 63 days
[4]; [10]
  Median survival of deceased animals: 41 days
  Time of death End: 41 days
  Time of death Start: 41 days
  Survival (# of rats) End: 9 # of rats
  Survival: 90% and 90 ^*** %
  Mean survival: 60.8 ± 7 days
  Median survival: 63 days
[4]; DMAMCL-treated rats
  Survival longer than vehicle animals: ~ 30 days
